These results are taken from US20250262201A1, “COMPOUNDS AND METHODS USEFUL FOR STABILIZING PHENYLALANINE HYDROXYLASE MUTATIONS” (Agios Pharmaceuticals, Inc., priority 2022, published 2025).

The target in this assay is T1, human PAH with the R408W mutation (Homo sapiens, UniProt P00439, R408W).
T1 construct: expressed in transfected cells
T1 sequence (P00439 1-452 R408W): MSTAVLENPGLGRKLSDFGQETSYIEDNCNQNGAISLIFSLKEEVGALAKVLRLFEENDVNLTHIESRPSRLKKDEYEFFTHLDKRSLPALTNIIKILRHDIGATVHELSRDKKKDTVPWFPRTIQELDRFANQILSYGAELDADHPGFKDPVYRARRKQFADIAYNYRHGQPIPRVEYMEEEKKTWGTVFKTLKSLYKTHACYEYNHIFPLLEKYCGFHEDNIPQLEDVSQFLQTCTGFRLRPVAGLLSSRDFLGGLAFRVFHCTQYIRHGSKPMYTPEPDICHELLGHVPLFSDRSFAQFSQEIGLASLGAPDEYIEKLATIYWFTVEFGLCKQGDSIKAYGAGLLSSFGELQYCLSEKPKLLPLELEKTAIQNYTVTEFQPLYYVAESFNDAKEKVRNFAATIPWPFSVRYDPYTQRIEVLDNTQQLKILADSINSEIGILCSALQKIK
The experiment in a line: Cell Based Phenylalanine Flux Assay. The following applies: A375 cells expressing human R408W PAH; 24 hrs compound incubation; 13C-Tyrosine by LC-MS; average where tested multiple times; read-out: AC50.
Consider `Cc1nc(-c2ccccn2)oc1C(=O)N1CCc2[nH]cnc2[C@H]1c1ncc2ccccc2n1` [Example 193, (S)-(4-methyl-2-(pyridin-2-yl)oxazol-5-yl)(4-(quinazolin-2-yl)-6,7-dihydro-1H-imidazo[4,5-c]pyridin-5(4H)-yl)methanone], for which the AC50 – broadly, the concentration giving half of the maximal activity seen – is less than 500 nM.
The value for `Cc1nc(-c2ccccn2)oc1C(=O)N1CCc2[nH]cnc2[C@@H]1c1ncc2ccccc2n1` [Example 194, (R)-(4-methyl-2-(pyridin-2-yl)oxazol-5-yl)(4-(quinazolin-2-yl)-6,7-dihydro-1H-imidazo[4,5-c]pyridin-5(4H)-yl)methanone] was 1000 to 5000 nM; that for `O=C(c1nnc(-c2ccc(OC(F)(F)F)cn2)o1)N1CCc2[nH]cnc2[C@H]1c1ncc2ccccc2n1` [Example 195, (S)-(4-(quinazolin-2-yl)-6,7-dihydro-1H-imidazo[4,5-c]pyridin-5(4H)-yl)(5-(5-(trifluoromethoxy)pyridin-2-yl)-1,3,4-oxadiazol-2-yl)methanone] was less than 500 nM; that for `O=C(c1nnc(-c2ccc(OC(F)(F)F)cn2)o1)N1CCc2[nH]cnc2[C@@H]1c1ncc2ccccc2n1` [Example 196, (R)-(4-(quinazolin-2-yl)-6,7-dihydro-1H-imidazo[4,5-c]pyridin-5(4H)-yl)(5-(5-(trifluoromethoxy)pyridin-2-yl)-1,3,4-oxadiazol-2-yl)methanone] was greater than 5000 nM.
Next, `Cn1cnc(-c2nnc(C(=O)N3CCc4[nH]cnc4[C@H]3c3ncc4ccccc4n3)o2)c1` [Example 197, (S)-(5-(1-methyl-1H-imidazol-4-yl)-1,3,4-oxadiazol-2-yl)(4-(quinazolin-2-yl)-6,7-dihydro-1H-imidazo[4,5-c]pyridin-5(4H)-yl)methanone]: 500 to 1000 nM.
Take `Cc1nn(C)cc1-c1nnc(C(=O)N2CCc3[nH]cnc3[C@@H]2c2ncc3ccccc3n2)o1` [Example 199, (R)-(5-(1,3-dimethyl-1H-pyrazol-4-yl)-1,3,4-oxadiazol-2-yl)(4-(quinazolin-2-yl)-6,7-dihydro-1H-imidazo[4,5-c]pyridin-5(4H)-yl)methanone]: the AC50 is greater than 5000 nM.
The value for `Cc1nn(C)cc1-c1nnc(C(=O)N2CCc3[nH]cnc3[C@H]2c2ncc3ccccc3n2)o1` [Example 200, (S)-(5-(1,3-dimethyl-1H-pyrazol-4-yl)-1,3,4-oxadiazol-2-yl)(4-(quinazolin-2-yl)-6,7-dihydro-1H-imidazo[4,5-c]pyridin-5(4H)-yl)methanone] was less than 500 nM.
Next, `CC(C)(C)c1nnc(C(=O)N2CCc3[nH]cnc3[C@H]2c2ncc3ccccc3n2)o1` [Example 201, (S)-(5-(tert-butyl)-1,3,4-oxadiazol-2-yl)(4-(quinazolin-2-yl)-6,7-dihydro-1H-imidazo[4,5-c]pyridin-5(4H)-yl)methanone]: less than 500 nM; `CC(C)(C)c1nnc(C(=O)N2CCc3[nH]cnc3[C@@H]2c2ncc3ccccc3n2)o1` [Example 202, (R)-(5-(tert-butyl)-1,3,4-oxadiazol-2-yl)(4-(quinazolin-2-yl)-6,7-dihydro-1H-imidazo[4,5-c]pyridin-5(4H)-yl)methanone]: greater than 5000 nM; `Cn1nccc1-c1nnc(C(=O)N2CCc3[nH]cnc3[C@H]2c2ncc3ccccc3n2)o1` [Example 203, (S)-(5-(1-methyl-1H-pyrazol-5-yl)-1,3,4-oxadiazol-2-yl)(4-(quinazolin-2-yl)-6,7-dihydro-1H-imidazo[4,5-c]pyridin-5(4H)-yl)methanone]: less than 500 nM.
Next, `Cn1nccc1-c1nnc(C(=O)N2CCc3[nH]cnc3[C@@H]2c2ncc3ccccc3n2)o1` [Example 204, (R)-(5-(1-methyl-1H-pyrazol-5-yl)-1,3,4-oxadiazol-2-yl)(4-(quinazolin-2-yl)-6,7-dihydro-1H-imidazo[4,5-c]pyridin-5(4H)-yl)methanone]: 1000 to 5000 nM; `O=C(c1cnc(-c2ccccn2)s1)N1CCc2[nH]cnc2[C@H]1c1cc2ccccc2nn1` [Example 205, (S)-(4-(cinnolin-3-yl)-6,7-dihydro-1H-imidazo[4,5-c]pyridin-5(4H)-yl)(2-(pyridin-2-yl)thiazol-5-yl)methanone]: 500 to 1000 nM; `O=C(c1cnc(-c2ccccn2)s1)N1CCc2[nH]cnc2[C@@H]1c1cc2ccccc2nn1` [Example 206, (R)-(4-(cinnolin-3-yl)-6,7-dihydro-1H-imidazo[4,5-c]pyridin-5(4H)-yl)(2-(pyridin-2-yl)thiazol-5-yl)methanone]: 1000 to 5000 nM.
As for `Cc1nc(-c2ccccn2)oc1C(=O)N1CCc2[nH]cnc2[C@@H]1c1cc2ccccc2nn1` [Example 207], the AC50 was greater than 5000 nM.
The value for `Cc1nc(-c2ccccn2)oc1C(=O)N1CCc2[nH]cnc2[C@H]1c1cc2ccccc2nn1` [Example 208, (S)-(4-(cinnolin-3-yl)-6,7-dihydro-1H-imidazo[4,5-c]pyridin-5(4H)-yl)(4-methyl-2-(pyridin-2-yl)oxazol-5-yl)methanone] was 500 to 1000 nM; that for `CC(C)(O)c1nc(C(F)F)c(C(=O)N2CCc3[nH]cnc3[C@H]2c2cc3ccccc3nn2)o1` [Example 209, (S)-(4-(cinnolin-3-yl)-6,7-dihydro-1H-imidazo[4,5-c]pyridin-5(4H)-yl)(4-(difluoromethyl)-2-(2-hydroxypropan-2-yl)oxazol-5-yl)methanone] was less than 500 nM.
The value for `CC(C)(O)c1nc(C(F)F)c(C(=O)N2CCc3[nH]cnc3[C@@H]2c2cc3ccccc3nn2)o1` [Example 210, (R)-(4-(cinnolin-3-yl)-6,7-dihydro-1H-imidazo[4,5-c]pyridin-5(4H)-yl)(4-(difluoromethyl)-2-(2-hydroxypropan-2-yl)oxazol-5-yl)methanone] was 1000 to 5000 nM; that for `Cc1ncoc1C(=O)N1CCc2[nH]cnc2[C@H]1c1cc2ccccc2nn1` [Example 211, (S)-(4-(cinnolin-3-yl)-6,7-dihydro-1H-imidazo[4,5-c]pyridin-5(4H)-yl)(4-methyloxazol-5-yl)methanone] was less than 500 nM.
`O=C(c1ccnn1C(F)F)N1CCc2[nH]cnc2[C@H]1c1cc2ccccc2nn1` [Example 213, (S)-(4-(cinnolin-3-yl)-6,7-dihydro-1H-imidazo[4,5-c]pyridin-5(4H)-yl)(1-(difluoromethyl)-1H-pyrazol-5-yl)methanone]: the AC50 is less than 500 nM.
For `O=C(c1ccnn1C(F)F)N1CCc2[nH]cnc2[C@@H]1c1cc2ccccc2nn1` [Example 214, (R)-(4-(cinnolin-3-yl)-6,7-dihydro-1H-imidazo[4,5-c]pyridin-5(4H)-yl)(1-(difluoromethyl)-1H-pyrazol-5-yl)methanone], the AC50 lay within 1000 to 5000 nM.
On to `O=C(C1CC1)N1CCc2[nH]cnc2[C@H]1c1cc2ccccc2nn1` [Example 215, (S)-(4-(cinnolin-3-yl)-6,7-dihydro-1H-imidazo[4,5-c]pyridin-5(4H)-yl)(cyclopropyl)methanone], for which the concentration at half-maximal activity (AC50) was 1000 to 5000 nM.
Next, `O=C(C1CC1)N1CCc2[nH]cnc2[C@@H]1c1cc2ccccc2nn1` [Example 216, (R)-(4-(cinnolin-3-yl)-6,7-dihydro-1H-imidazo[4,5-c]pyridin-5(4H)-yl)(cyclopropyl)methanone]: 1000 to 5000 nM; `CC(C)(F)c1nnc(C(=O)N2CCc3[nH]cnc3[C@H]2c2cc3ccccc3nn2)o1` [Example 218, (S)-(4-(cinnolin-3-yl)-6,7-dihydro-1H-imidazo[4,5-c]pyridin-5(4H)-yl)(5-(2-fluoropropan-2-yl)-1,3,4-oxadiazol-2-yl)methanone]: 500 to 1000 nM.
As for `O=C(CCc1nccs1)N1CCc2[nH]cnc2[C@H]1c1ccc2ccccc2c1` [Example 219, (R)-1-(4-(naphthalen-2-yl)-6,7-dihydro-1H-imidazo[4,5-c]pyridin-5(4H)-yl)-3-(thiazol-2-yl)propan-1-one], the AC50 was in the range of 500 to 1000 nM.
As to `O=C(c1cncs1)N1CCc2[nH]cnc2[C@H]1c1ccc2ccccc2c1` [Example 221, (R)-(4-(naphthalen-2-yl)-6,7-dihydro-1H-imidazo[4,5-c]pyridin-5(4H)-yl)(thiazol-5-yl)methanone], the AC50 was in the range of 1000 to 5000 nM.
The value for `O=C(c1cncs1)N1CCc2[nH]cnc2[C@@H]1c1ccc2ccccc2c1` [Example 222, (S)-(4-(naphthalen-2-yl)-6,7-dihydro-1H-imidazo[4,5-c]pyridin-5(4H)-yl)(thiazol-5-yl)methanone] was greater than 5000 nM; that for `O=C(c1cnc(-c2ccccn2)s1)N1CCc2[nH]cnc2[C@H]1c1ccc2ccccc2c1` [Example 223, (R)-(4-(naphthalen-2-yl)-6,7-dihydro-1H-imidazo[4,5-c]pyridin-5(4H)-yl)(2-(pyridin-2-yl)thiazol-5-yl)methanone] was 1000 to 5000 nM; that for `O=C(c1cnc(-c2ccccn2)s1)N1CCc2[nH]cnc2[C@@H]1c1ccc2ccccc2c1` [Example 224, (S)-(4-(naphthalen-2-yl)-6,7-dihydro-1H-imidazo[4,5-c]pyridin-5(4H)-yl)(2-(pyridin-2-yl)thiazol-5-yl)methanone] was greater than 5000 nM.
The value for `O=C(c1cnn2ccccc12)N1CCc2[nH]cnc2[C@H]1c1cn2ccccc2n1` [Example 225, (R)-(4-(imidazo[1,2-a]pyridin-2-yl)-6,7-dihydro-1H-imidazo[4,5-c]pyridin-5(4H)-yl)(pyrazolo[1,5-a]pyridin-3-yl)methanone] was less than 500 nM; that for `O=C(c1cnn2ccccc12)N1CCc2[nH]cnc2[C@@H]1c1cn2ccccc2n1` [Example 226, (S)-(4-(imidazo[1,2-a]pyridin-2-yl)-6,7-dihydro-1H-imidazo[4,5-c]pyridin-5(4H)-yl)(pyrazolo[1,5-a]pyridin-3-yl)methanone] was greater than 5000 nM.
